{"source": "paper PMC5772529", "about": "(Scientific Reports, 2018)", "key": {"[1]": {"biological_target": "T1, human CaV2.2 (α1B, β3, α2δ1) (Homo sapiens, UniProt Q00975)", "T1 construct": "expressed in transfected cells", "T1 sequence (Q00975 whole entry, looked up)": "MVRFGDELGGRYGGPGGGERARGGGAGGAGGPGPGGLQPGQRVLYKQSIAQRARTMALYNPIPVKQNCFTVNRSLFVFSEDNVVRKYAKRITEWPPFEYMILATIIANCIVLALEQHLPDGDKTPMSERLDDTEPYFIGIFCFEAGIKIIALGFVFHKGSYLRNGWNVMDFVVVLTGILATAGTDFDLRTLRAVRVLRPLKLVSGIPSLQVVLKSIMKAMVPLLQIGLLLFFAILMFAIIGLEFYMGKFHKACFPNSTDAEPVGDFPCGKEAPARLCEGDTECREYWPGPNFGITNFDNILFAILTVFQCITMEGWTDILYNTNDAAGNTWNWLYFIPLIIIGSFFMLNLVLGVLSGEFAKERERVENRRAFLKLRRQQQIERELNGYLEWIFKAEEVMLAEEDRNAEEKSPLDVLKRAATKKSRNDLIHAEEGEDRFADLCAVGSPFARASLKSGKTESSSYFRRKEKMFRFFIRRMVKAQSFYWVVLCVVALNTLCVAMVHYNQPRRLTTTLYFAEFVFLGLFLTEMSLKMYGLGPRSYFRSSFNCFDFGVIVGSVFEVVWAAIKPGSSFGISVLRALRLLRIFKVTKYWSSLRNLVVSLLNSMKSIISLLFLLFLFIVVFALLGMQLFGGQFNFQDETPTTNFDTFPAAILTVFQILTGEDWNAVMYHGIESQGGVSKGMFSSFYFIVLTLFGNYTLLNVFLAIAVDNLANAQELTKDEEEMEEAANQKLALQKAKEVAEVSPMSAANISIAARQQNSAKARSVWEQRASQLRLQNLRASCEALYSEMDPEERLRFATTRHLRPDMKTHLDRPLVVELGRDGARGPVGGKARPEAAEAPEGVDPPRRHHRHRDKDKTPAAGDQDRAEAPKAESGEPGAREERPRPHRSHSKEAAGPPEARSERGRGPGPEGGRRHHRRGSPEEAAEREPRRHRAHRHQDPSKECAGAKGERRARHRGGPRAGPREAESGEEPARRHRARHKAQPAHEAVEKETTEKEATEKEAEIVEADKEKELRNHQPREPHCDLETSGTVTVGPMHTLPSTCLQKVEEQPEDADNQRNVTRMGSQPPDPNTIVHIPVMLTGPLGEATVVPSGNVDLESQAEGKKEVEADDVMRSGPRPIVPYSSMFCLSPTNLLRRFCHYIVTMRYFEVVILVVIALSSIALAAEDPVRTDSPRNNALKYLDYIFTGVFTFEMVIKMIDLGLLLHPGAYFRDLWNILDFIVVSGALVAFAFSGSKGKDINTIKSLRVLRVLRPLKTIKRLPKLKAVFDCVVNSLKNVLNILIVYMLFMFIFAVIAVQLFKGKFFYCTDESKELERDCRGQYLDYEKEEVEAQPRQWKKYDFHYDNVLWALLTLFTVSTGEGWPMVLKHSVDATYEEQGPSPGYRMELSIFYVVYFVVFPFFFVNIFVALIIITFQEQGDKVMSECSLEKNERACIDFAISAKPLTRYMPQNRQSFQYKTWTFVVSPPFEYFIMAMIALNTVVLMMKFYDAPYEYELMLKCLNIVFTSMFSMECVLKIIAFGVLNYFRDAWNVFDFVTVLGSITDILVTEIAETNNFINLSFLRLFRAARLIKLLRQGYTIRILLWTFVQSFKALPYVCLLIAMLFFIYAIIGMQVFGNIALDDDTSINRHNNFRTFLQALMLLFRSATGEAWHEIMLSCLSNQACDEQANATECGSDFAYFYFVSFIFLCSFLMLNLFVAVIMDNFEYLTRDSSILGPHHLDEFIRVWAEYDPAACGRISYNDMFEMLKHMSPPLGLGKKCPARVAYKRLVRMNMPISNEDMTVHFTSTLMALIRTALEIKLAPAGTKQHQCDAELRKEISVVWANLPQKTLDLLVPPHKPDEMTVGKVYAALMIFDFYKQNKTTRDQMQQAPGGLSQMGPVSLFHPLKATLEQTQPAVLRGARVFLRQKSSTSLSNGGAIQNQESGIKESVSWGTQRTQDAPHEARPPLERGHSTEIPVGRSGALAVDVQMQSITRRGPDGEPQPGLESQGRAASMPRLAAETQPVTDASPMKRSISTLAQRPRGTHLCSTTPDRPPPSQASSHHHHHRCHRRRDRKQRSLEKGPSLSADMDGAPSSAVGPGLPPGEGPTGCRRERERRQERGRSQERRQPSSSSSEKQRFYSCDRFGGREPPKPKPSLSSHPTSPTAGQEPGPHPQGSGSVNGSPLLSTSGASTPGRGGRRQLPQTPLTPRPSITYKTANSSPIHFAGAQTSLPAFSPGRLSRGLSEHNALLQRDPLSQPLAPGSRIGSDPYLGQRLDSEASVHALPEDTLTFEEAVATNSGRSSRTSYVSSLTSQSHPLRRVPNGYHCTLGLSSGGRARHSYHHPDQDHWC", "experiment": "cell-based", "design": "Emax: dose or concentration left out as unconfirmed"}, "Beagle dogs": {"tested_on": "Beagle dogs", "conditions": "dog, in vivo"}}, "note": "Positions of bridges follow the written chain, without caps; N, C: chain ends. Residues, ends and D or L forms follow the SMILES beside them.", "data": [{"smiles": "CSCC[C@@H]1NC(=O)[C@@H]2CSSC[C@H](NC(=O)CN)C(=O)N[C@@H](CSSC[C@@H](C(N)=O)NC(=O)[C@H](CC(C)C)NC(=O)[C@H](CC(N)=O)NC(=O)[C@@H]3CCCN3C(=O)[C@H](CC(N)=O)NC(=O)[C@H](CCCCN)NC(=O)[C@H](CC(C)C)NC1=O)C(=O)N[C@@H](CO)C(=O)N[C@@H](CC(N)=O)C(=O)N1CCC[C@H]1C(=O)N[C@@H](C)C(=O)N2", "note": "[Eu1.6] (H-GCCSNPACMLKNPNLC-NH2; disulfide 2-8, 3-16)", "values": [{"measurement": "IC50", "setting": "[1]", "value": 1.1, "unit": "nM"}, {"measurement": "maximum block of CaV2.2", "setting": "[1]", "value": "< 50", "unit": "%"}, {"measurement": "reduction of peak current density", "setting": "[1]", "value": "> 40", "unit": "%"}, {"measurement": "inhibition at 1 µM", "setting": "[1]; HEK293, read-out: inhibition of depolarization-activated Ba2+ current amplitude", "value": "> 30", "unit": "%"}, {"measurement": "Emax", "setting": "[1]; HEK293, read-out: maximal effect (partial inhibitor)", "value": 40, "unit": "%"}, {"measurement": "physiological impairments of baseline parameters (locomotion, cardiac and respiratory function)", "setting": "Beagle dogs", "value": "no physiological impairments"}]}]}
